Counter-ions that a name gives are not always drawn. Like-named read-outs stand apart in the source and are kept apart here.

The nature of data set [1]: Solubility assay. The data set is classed as physicochemical. As to the method: According to the conventional solubility measurement, the solubility of a compound of formula (I) and salts thereof was determined in three different systems: water, physiological saline and methanol.
Data set [2] addresses HER-2 kinase (Homo sapiens, UniProt P04626). Briefly: HER-2 kinase activity assay (time-resolved fluorescence). The data set is classed as biochemical. The following applies: table of the HER-2 kinase activity assay; human-derived recombinant HER-2 kinase, 20 μM ATP, 25° C., 45 minutes; read-out: IC50 (HER-2/SK-BR-3). As for the experimental part:
The in vitro HER-2 kinase activity was tested by the following assay.
The following assay was used to determine the activity of the compounds of the present invention for inhibiting HER-2 kinase. The half maximal inhibitory concentration IC50 (the concentration of the test compound showing 50% inhibition of the enzyme activity) of each compound was determined by incubating several different concentrations of the test compounds with a specific enzyme and substrate. […] The HER-2 kinase activity was determined by using a time-resolved fluorescence method.

Data set [3] concerns human carcinoma SK-BR-3 cells, which have high expression of HER-2. As to the kind of experiment: HER-2 cell activity assay (SRB, 96 hours). The data set is classed as cell-based. The following applies: read-out: IC50 (HER-2/SK-BR-3). An excerpt: The following in vitro assay was to determine the activity of the compounds of the present invention for inhibiting the proliferation of human carcinoma SK-BR-3 cells, which have high expression of HER-2.
The following in vitro assay was to determine the activity of the test compounds for inhibiting the angiogenesis and proliferation of cancer cells, which have high expression of HER-2. The activity is represented by the IC50 value. The general procedure of the assay was as follows: the cancer cells line SK-BR-3 highly expressing HER-2 was chosen and the cells were seeded in a 96-well cell culture plate at a suitable density. The cells then were incubated in a carbon dioxide incubator until they reached 60% confluence. Then, the cell culture medium was replaced by fresh medium with the test compounds at various concentrations (6 to 7 concentrations). The cells were put back in the incubator and cultured continuously for 96 hours. The activity of the test compounds for inhibiting the cell proliferation was determined by using a Sulforhodamine B (SRB) method. IC50 values of test cells were calculated by the rate of inhibition at various concentrations of the test compounds.

Data set [4] is described as follows: Solubility assay. It counts as physicochemical. The settings on record: for solubility: 0.1 M hydrochloric acid, simulated gastric fluid.
Data set [5] relates to human epidermoid carcinoma A431 cells, which have high expression of EGFR. As to the kind of experiment: EGFR cell proliferation inhibition assay (SRB, 72 hours). The following applies: A431 cells, 72 hours, SRB, read-out: IC50 (EGFR/A431). The data set is classed as cell-based. As for the experimental part: The activity is represented by the IC50 value. The general procedures of the assay were as follows: the cancer cells A431 highly expressing EGFR were chosen and seeded in a 96-well cell culture plate at a suitable density (e.g., 5000 cells/mL medium). The cells were then incubated in a carbon dioxide incubator until they reached 85% confluence. Then, the cell culture medium was replaced by fresh medium containing the test compounds with serial dilutions (general 6 to 7 concentrations). The cells were put back in the incubator and cultured continuously for 72 hours. The activity of the test compounds for inhibiting the cell proliferation was determined by using a Sulforhodamine B (SRB) method. IC50 values were calculated by the rate of inhibition at various concentrations of the test compounds.

The nature of data set [6]: Pharmacokinetics assay in rats (LC/MS/MS of plasma). It counts as in vivo, Sprague Dawley (SD) rats. The settings on record: both sexes, Sprague-Dawley, rat, plasma, 25 mg/kg; for AUC(0-t): read-out: AUC0-t; for MRT: read-out: MRT; for Cmax: read-out: Cmax; for Vd/F: read-out: Vz/F; for bioavailability: oral absolute bioavailability, 25 mg/kg (calculated by the base part). As to the method:
The rats were used as test animals. The compound of formula (I) and other salts thereof were administrated intragastrically, and a maleate salt of the compound of formula (I) was injected into the tail vein to determine the drug concentration in plasma at different time points by an LC/MS/MS method. The pharmacokinetic behavior, characteristics and the oral absolute bioavailability of the present compounds were studied and evaluated in rats. […] 28 healthy adult Sprague Dawley (SD) rats, half male and half female, were purchased from SINO-BRITSH SIPPR/BK LAB. ANIMAL LTD., CO, License number: SCXK (Shanghai) 2008-0016, and divided into 7 groups (4 rats in each group). The intravenous injection group: a suitable amount of compounds was weighed, dissolved in DMSO and diluted with normal saline to the final volume. […] healthy adult SD rats, half male and half female, were divided into 7 groups (4 rats in each group). […] For the intravenous injection group, blood samples (0.2 mL) were taken from orbital sinus before administration and at 2 min, 15 min, 30 min, 1.0 […] and 36.0 h after administration, stored in heparinized tubes and centrifuged for 10 minutes at 3,500 rpm to separate blood plasma. The plasma samples were stored at -20° C. For the intragastrical administration group, blood samples were taken before administration and at 0.5, 1.0, 2.0, 3.0, 4.0, 6.0, 8.0, 12.0, 24.0 and 36.0 hours after administration. The method to treat the samples was the same as with the intravenous injection group. The rats were fed 2 hours after administration.

The mark [7] stands for this setting: physiological saline, saline or isotonic, physiological saline, read-out: Solubility Value, Physiological saline.
[8] abbreviates: water, read-out: Solubility Value, Water.

Chain of HER-2 kinase (P04626 23-1255): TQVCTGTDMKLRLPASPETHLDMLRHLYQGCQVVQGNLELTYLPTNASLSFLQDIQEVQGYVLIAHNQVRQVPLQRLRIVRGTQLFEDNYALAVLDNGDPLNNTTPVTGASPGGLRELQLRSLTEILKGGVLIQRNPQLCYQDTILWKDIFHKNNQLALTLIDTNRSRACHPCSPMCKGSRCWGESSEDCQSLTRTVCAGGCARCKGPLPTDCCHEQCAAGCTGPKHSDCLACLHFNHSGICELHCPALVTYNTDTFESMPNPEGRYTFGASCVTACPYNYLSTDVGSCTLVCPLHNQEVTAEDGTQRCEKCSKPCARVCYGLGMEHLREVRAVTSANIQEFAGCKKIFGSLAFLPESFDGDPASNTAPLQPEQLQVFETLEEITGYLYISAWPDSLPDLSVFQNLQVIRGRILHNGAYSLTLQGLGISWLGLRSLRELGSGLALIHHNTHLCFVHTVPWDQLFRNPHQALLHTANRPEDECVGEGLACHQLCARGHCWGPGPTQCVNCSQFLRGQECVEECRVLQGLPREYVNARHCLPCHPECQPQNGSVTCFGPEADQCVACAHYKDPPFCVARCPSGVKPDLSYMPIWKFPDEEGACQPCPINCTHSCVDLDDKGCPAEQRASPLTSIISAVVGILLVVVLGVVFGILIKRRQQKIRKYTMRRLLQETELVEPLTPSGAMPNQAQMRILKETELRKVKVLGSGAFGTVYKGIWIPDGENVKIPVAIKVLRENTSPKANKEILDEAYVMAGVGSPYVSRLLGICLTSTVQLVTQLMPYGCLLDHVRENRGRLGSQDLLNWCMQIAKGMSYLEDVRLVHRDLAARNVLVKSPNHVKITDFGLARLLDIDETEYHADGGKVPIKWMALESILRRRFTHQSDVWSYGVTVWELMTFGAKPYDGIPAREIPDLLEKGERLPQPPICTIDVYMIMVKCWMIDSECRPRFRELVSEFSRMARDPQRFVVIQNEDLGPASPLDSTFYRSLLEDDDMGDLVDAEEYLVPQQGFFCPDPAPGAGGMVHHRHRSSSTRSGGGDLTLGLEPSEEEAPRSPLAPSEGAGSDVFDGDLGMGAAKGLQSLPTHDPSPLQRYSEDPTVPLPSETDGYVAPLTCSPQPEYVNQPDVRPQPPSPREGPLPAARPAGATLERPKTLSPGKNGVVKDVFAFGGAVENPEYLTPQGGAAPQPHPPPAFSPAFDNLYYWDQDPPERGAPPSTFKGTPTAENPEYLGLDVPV

The solubility is the dissolved amount per volume that the medium holds. One may read the half-life as the time needed for the level to fall by half in the phase considered. The term MRT denotes a mean duration of stay, worked out from the concentration-time curve. By CL/F is commonly meant clearance divided by bioavailability, as obtained after extravascular dosing. In general, Cmax refers to the peak of the concentration-time curve. In general, bioavailability refers to dose-corrected exposure relative to a reference, in per cent. As to `CCOc1cc2ncc(C#N)c(Nc3ccc(OCc4ccccn4)c(Cl)c3)c2cc1NC(=O)/C=C/[C@H]1CCCN1C.Cc1ccc(S(=O)(=O)O)cc1` [Example 7, (E)-N-[4-[[3-chloro-4-(2-pyridylmethoxy)phenyl]amino]-3-cyano-7-ethoxy-6-quinolyl]-3-[(2R)-1-methylpyrrolidin-2-yl]prop-2-enamide p-toluenesulfonate], the solubility in data set [1] (setting [7]) is 0.1 mg/mL. In addition, the solubility in data set [1] (setting [8]) stood at 5.39 mg/mL. The IC50 in data set [2] was determined as 64 nM. The IC50 in data set [3] (p-toluenesulfonate) worked out at 45 nM. Moreover, the solubility in data set [4] is 31.9 mg/mL. Besides, the IC50 in data set [5] (p-toluenesulfonate) worked out at 38 nM. Besides, in data set [6] (iv, vein (tail vein injection)), the half-life was 3.12 ± 0.37 h, the AUC(0-t) is 113000 ± 62100 ng·h/mL and the MRT came to 4.2 ± 0.99 h. Moreover, in data set [6] (po, gavage), the CL/F is 10.5 mL/min/kg, the half-life was 3.52 ± 0.69 h, the AUC(0-t) turned out to be 44300 ± 16000 ng·h/mL and the Cmax was determined as 5160 ± 1640 ng/mL. Further, in data set [6] (po, gavage), the MRT was 7.9 ± 0.74 h and the Vd/F was 3.23 ± 1.65 L/kg. The bioavailability in data set [6] (po) is 39.2%.

With `CCOc1cc2ncc(C#N)c(Nc3ccc(OCc4ccccn4)c(Cl)c3)c2cc1NC(=O)/C=C/[C@H]1CCCN1C` [Example 9, (E)-N-[4-[[3-chloro-4-(2-pyridylmethoxy)phenyl]amino]-3-cyano-7-ethoxy-6-quinolyl]-3-[(2R)-1-methylpyrrolidin-2-yl]prop-2-enamide dihydrochloride], in data set [1] (physiological saline, dihydrochloride), the “Solubility Value, Physiological saline” value is 0.2 mg/mL. Also, in data set [1] (water, dihydrochloride), the “Solubility Value, Water” value stood at 0.15 mg/mL. Further, in data set [2], the IC50 turned out to be 46 nM. Further, the IC50 in data set [3] (dihydrochloride) is 69 nM. Also, the “Solubility Value, 0.1M Hydrochloric acid” value in data set [4] (0.1M hydrochloric acid, dihydrochloride) was 16.59 mg/mL. Also, the IC50 in data set [5] (dihydrochloride) was 49 nM. In addition, in data set [6] (iv, vein (tail vein injection)), the half-life was 4.75 ± 0.32 h, the AUC(0-t) was 115000 ± 33100 ng·h/mL and the MRT was 5.54 ± 0.58 h. In data set [6] (po, gavage), the CL/F was 6.67 mL/min/kg, the half-life is 3.47 ± 0.18 h, the AUC(0-t) was found to be 66100 ± 17200 ng·h/mL and the Cmax amounted to 5870 ± 1610 ng/mL. For the same molecule, in data set [6] (po, gavage), the MRT is 7.96 ± 0.7 h and the Vd/F was determined as 1.99 ± 0.49 L/kg. Besides, the bioavailability in data set [6] (po) is 57.6%.

`CCOc1cc2ncc(C#N)c(Nc3ccc(OCc4ccccn4)c(Cl)c3)c2cc1NC(=O)/C=C/[C@H]1CCCN1C.O=C(O)C[C@H](O)C(=O)O` [Example 3, (E)-N-[4-[[3-chloro-4-(2-pyridylmethoxy)phenyl]amino]-3-cyano-7-ethoxy-6-quinolyl]-3-[(2R)-1-methylpyrrolidin-2-yl]prop-2-enamide L-malate]: the solubility was 0.08 mg/mL in data set [1] (setting [7]), 17.2 mg/mL in data set [1] (setting [8]) and 12.7 mg/mL in data set [4]. The IC50 in data set [2] was found to be 71 nM; in data set [3] (L-malate) it was 56 nM; in data set [5] (L-malate) it was 29 nM.

Regarding `CCOc1cc2ncc(C#N)c(Nc3ccc(OCc4ccccn4)c(Cl)c3)c2cc1NC(=O)/C=C/[C@H]1CCCN1C.O=C(O)CCC(=O)O` [Example 8, (E)-N-[4-[[3-chloro-4-(2-pyridylmethoxy)phenyl]amino]-3-cyano-7-ethoxy-6-quinolyl]-3-[(2R)-1-methylpyrrolidin-2-yl]prop-2-enamide succinate], the values for the solubility in data set [1] (setting [7]), in data set [1] (setting [8]) and in data set [4] were 3.32 mg/mL, 22.4 mg/mL and 32.4 mg/mL, respectively. Further, the results for the IC50 in data set [2], in data set [3] (succinate) and in data set [5] (succinate) were 53 nM, 78 nM and 15 nM, respectively.

(Values after patent publication US20130338190A1, “PHARMACEUTICALLY ACCEPTABLE SALT OF (E)-N-[4-[[3-CHLORO-4-(2-PYRIDYLMETHOXY)PHENYL]AMINO]-3-CYANO-7-ETHOXY-6-QUINOLYL]-3-[(2R)-1-METHYLPYRROLIDIN-2-YL]PROP-2-ENAMIDE, PREPARATION METHOD THEREOF, AND MEDICAL USE THEREOF” (priority 2011, published 2013).)
